Reference: patent publication EP1505064A1, “2-Aminopyrimidine derivatives” (Bayer HealthCare AG, priority 2003, dated 2005)
Where a name gives a salt, the structure may show the parent alone.

Target: human H4 (Homo sapiens, UniProt Q9H3N8)
Test: Calcium mobilization in CHO cells transfected with human H4 (Assay 1)
Type: cell-based
Details: calcium mobilization induced by 100 nM histamine in CHO-H4 cells; compounds at purity of about 40 to 90%; read-out: Activity Class
Procedure: [Calcium Mobilization in CHO cells transfected with human H4] (Assay1)
A fusion construct consisting of the n-terminal part of H4 and the C-terminal part of the G protein Gα 6 was transfected into CHO cells containing the aequorin-controlled luciferase gene (CHOAQLuci cells). Recombinant clones showing aequorin luminescence after the addition of 1 µM histamine were isolated. Starting with three independent primary cell clones three sets of tertiary clones were generated by two successive rounds of limiting dilution. Analysis of the primary clones as well as each subcloning by limiting dilution was monitored by "clone-pool analysis" comparing H4-transfected to mock-transfected (expression vector without H4 receptor cDNA) clones.
CHO-H4 cells were seeded at 2 x 10^4 cells per well in Biocoat poly-D-Lysine 96 well black/clear plates (BECTON DICKINSON, Franklin Lakes, US) in D-MEM/F12 medium supplemented with 10% FCS and 400 µg/ml Geneticin (Invitrogen GIBCO, Carlsbad, US) and 2 mM butylrate for O/N. The medium was removed and cells were loaded with 1 µM Fluo-3 (Molecular Probes, Eugene, USA) in loading solution (0.1% BSA, 20mM HEPES Hank's Buffer, 1mM probinecid) for 1 h. The loading buffer was removed and exchanged for fresh loading buffer. Cells were pretreated with various concentrations of test compounds and subjected to calcium mobilization measurement induced by 100 nM histamine by using FDSS6000.
Assay results in Assay 1 are shown in Examples and tables of the Examples below. The data corresponds to the compounds as yielded by solid phase synthesis and thus to levels of purity of about 40 to 90%. For practical reasons, the compounds are grouped in four classes of activity as follows: A IC50 20nM < B IC50 100nM C < IC50 500nM D

Chain of human H4 (Q9H3N8 whole entry): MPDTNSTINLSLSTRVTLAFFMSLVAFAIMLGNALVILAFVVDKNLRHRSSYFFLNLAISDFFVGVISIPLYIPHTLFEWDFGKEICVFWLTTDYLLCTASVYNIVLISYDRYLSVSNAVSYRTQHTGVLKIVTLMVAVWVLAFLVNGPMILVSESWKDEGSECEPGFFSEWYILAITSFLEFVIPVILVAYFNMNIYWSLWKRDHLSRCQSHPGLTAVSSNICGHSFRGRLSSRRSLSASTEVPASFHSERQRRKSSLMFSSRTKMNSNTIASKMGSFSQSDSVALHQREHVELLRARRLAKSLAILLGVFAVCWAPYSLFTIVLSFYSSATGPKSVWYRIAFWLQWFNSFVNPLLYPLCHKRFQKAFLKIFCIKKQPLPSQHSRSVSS

SMILES: CNC1CCN(c2cc(-c3cccc(C#N)c3)nc(N)n2)C1 (stereo not drawn) [Example 2, 3-{2-Amino-6-[3-(methylamino)pyrrolidin-1-yl]pyrimidin-4-yl}benzonitrile trihydrochloride]
- IC50: 20 to 100 nM

SMILES: CN[C@H]1CCN(c2cc(-c3cccc([N+](=O)[O-])c3)nc(N)n2)C1 [Example 7, 4-[(3 S)-3-(methylamino)pyrrolidin-1-yl]-6-(3-nitrophenyl)pyrimidin-2-amine trihydrochloride]
- IC50: 100 to 500 nM

SMILES: CN[C@@H]1CCN(c2cc(-c3cccc([N+](=O)[O-])c3)nc(N)n2)C1 [Example 6, 4-[(3R)-3-(methylamino)pyrrolidin-1-yl]-6-(3-nitrophenyl)pyrimidin-2-amine trihydrochloride]
- IC50: < 20 nM

SMILES: CNC1CCN(c2cc(-c3ccccc3)nc(N)n2)C1 (stereo not drawn) [Example 1, 4-[3-(Methylamino)pyrrolidin-1-yl]-6-phenylpyrimidin-2-amine trihydrochloride]
- IC50: < 20 nM

SMILES: Nc1nc(-c2ccccc2)cc(N2CCC(N)C2)n1 (stereo not drawn) [Example 3, 4-(3-aminopyrrolidin-1-yl)-6-phenylpyrimidin-2-amine trihydrochloride]
- IC50: 20 to 100 nM

SMILES: CN[C@H]1CCN(c2cc(-c3ccccc3)nc(N)n2)C1 [Example 8, 4-[(3S)-3-(methylamino)pyrrolidin-1-yl]-6-phenylpyrimidin-2-amine trihydrochloride]
- IC50: 20 to 100 nM
